According to patent US8722712B2, “Substituted aryl 1 ,2,4-oxadiazoles derivatives as sphingosine-1 phosphate receptors modulators” (Allergan, Inc., priority 2012, dated 2014):

Biological target: T1, human S1P1 receptor (Homo sapiens, UniProt P21453)
T1 construct: expressed in transfected cells; membranes used
Assay: GTP γ35S binding assay for S1P1 activity
Format: biochemical
Settings: membranes of cells stably expressing the S1P1 receptor, test compounds 0.08 to 5,000 nM
Experimental: Compounds were synthesized and tested for S1P1 activity using the GTP γ^355 binding assay. These compounds may be assessed for their ability to activate or block activation of the human S1P1 receptor in cells stably expressing the S1P1 receptor.
[…] binding was measured in the medium containing (mM) HEPES 25, pH 7.4, MgCl2 10, NaCl 100, dithitothreitol 0.5, digitonin 0.003%, 0.2 nM GTP γ^35S, and 5 μg membrane protein in a volume of 150 μl. Test compounds were included in the concentration range from 0.08 to 5,000 nM unless indicated otherwise. Membranes were incubated with 100 μM 5′-adenylylimmidodiphosphate for 30 min, and subsequently with 10 μM GDP for 10 min on ice. Drug solutions and membrane were mixed, and then reactions were initiated by adding GTP γ^35S and continued for 30 min at 25° C. Reaction mixtures were filtered over Whatman GF/B filters under vacuum, and washed three times with 3 mL of ice-cold buffer (HEPES 25, pH7.4, MgCl2 10 and NaCl-100). Filters were dried and mixed with scintillant, and counted for ^35S activity using a […]. Agonist-induced GTP γ^35S binding was obtained by subtracting that in the absence of agonist. Binding data were analyzed using a non-linear regression method. In case of antagonist assay, the reaction mixture contained 10 nM […] in the presence of test antagonist at concentrations ranging from 0.08 to 5000 nM.

T1 sequence (P21453 whole entry): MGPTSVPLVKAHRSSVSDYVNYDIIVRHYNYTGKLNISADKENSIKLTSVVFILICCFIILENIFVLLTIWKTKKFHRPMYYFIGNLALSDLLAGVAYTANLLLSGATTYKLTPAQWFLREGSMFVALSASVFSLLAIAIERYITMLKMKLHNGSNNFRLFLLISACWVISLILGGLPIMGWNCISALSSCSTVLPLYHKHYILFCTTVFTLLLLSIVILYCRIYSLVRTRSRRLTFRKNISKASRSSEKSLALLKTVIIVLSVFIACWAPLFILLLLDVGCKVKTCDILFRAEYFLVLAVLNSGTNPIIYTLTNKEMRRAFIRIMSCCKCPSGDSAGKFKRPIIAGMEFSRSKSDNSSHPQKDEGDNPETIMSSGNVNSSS

| EC50 [µM] | SMILES |
| --- | --- |
| 0.606 | O=C(O)CCNCc1ccc(-c2noc(CCCCc3ccccc3)n2)cc1 [3-({4-[5-(4-Phenylbutyl)-1,2,4-oxadiazol-3-yl]benzyl}amino)propanoic acid] |
| 0.0792 | CCc1cc(-c2noc(CCCCc3ccccc3)n2)ccc1CNCCCP(=O)(O)O [Compound 1, [3-({2-Ethyl-4-[5-(4-phenylbutyl)-1,2,4-oxadiazol-3-yl]benzyl}amino)propyl]phosphonic acid] |
| 0.0238 | O=P(O)(O)CCCNCc1ccc(-c2noc(CCCCc3ccccc3)n2)c(F)c1 [Compound 2, [3-({3-Fluoro-4-[5-(4-phenylbutyl)-1,2,4-oxadiazol-3-yl]benzyl}amino)propyl]phosphonic acid] |
| 0.0169 | O=P(O)(O)CCCNCc1ccc(-c2noc(CCCCc3ccccc3)n2)c(Br)c1 [Compound 3, [3-({3-Bromo-4-[5-(4-phenylbutyl)-1,2,4-oxadiazol-3-yl]benzyl}amino)propyl]phosphonic acid] |
| 0.0631 | O=P(O)(O)CCCNCc1ccc(-c2noc(CCCCc3ccccc3)n2)cc1 [Compound 4, [3-({4-[5-(4-Phenylbutyl)-1,2,4-oxadiazol-3-yl]benzyl}amino)propyl]phosphonic acid] |
| 0.217 | O=P(O)(O)CCCNCc1ccc(-c2noc(CCCCc3ccccc3)n2)c(-c2ccco2)c1 [Compound 7, [3-({3-(2-Furyl)-4-[5-(4-phenylbutyl)1,2,4-oxadiazol-3-yl]benzyl}amino)propyl]phosphonic acid] |
